Experimental data taken from ChEMBL document CHEMBL1909046, “DrugMatrix in vitro pharmacology data”.

Experiments:
[1] = target: T1, C-X-C chemokine receptor type 2 (Homo sapiens, UniProt P25025); assay type: cell membranes, Membrane; settings: cho-k1; further: in other assays of this panel Not Active means under 50% inhibition at 10 µM
T1 sequence (P25025 whole entry): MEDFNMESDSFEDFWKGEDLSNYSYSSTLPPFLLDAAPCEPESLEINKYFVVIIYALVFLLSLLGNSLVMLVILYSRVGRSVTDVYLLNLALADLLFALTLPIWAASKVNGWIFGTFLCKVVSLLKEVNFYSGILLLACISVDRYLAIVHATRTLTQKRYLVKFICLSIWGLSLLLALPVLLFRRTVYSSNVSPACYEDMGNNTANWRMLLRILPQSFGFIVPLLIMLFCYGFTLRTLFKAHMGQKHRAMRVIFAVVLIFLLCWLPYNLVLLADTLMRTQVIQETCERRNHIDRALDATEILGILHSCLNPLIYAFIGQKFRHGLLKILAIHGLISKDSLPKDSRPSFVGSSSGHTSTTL

[2] = target: T2, Nitric oxide synthase, inducible (Mus musculus, UniProt P29477); design: species or system Escherichia coli;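 further: inhibition of iNOS enzyme activity measured with L-arginine as substrate; in other assays of this panel Not Active means under 50% inhibition at 10 µM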
T2 sequence (P29477 whole entry): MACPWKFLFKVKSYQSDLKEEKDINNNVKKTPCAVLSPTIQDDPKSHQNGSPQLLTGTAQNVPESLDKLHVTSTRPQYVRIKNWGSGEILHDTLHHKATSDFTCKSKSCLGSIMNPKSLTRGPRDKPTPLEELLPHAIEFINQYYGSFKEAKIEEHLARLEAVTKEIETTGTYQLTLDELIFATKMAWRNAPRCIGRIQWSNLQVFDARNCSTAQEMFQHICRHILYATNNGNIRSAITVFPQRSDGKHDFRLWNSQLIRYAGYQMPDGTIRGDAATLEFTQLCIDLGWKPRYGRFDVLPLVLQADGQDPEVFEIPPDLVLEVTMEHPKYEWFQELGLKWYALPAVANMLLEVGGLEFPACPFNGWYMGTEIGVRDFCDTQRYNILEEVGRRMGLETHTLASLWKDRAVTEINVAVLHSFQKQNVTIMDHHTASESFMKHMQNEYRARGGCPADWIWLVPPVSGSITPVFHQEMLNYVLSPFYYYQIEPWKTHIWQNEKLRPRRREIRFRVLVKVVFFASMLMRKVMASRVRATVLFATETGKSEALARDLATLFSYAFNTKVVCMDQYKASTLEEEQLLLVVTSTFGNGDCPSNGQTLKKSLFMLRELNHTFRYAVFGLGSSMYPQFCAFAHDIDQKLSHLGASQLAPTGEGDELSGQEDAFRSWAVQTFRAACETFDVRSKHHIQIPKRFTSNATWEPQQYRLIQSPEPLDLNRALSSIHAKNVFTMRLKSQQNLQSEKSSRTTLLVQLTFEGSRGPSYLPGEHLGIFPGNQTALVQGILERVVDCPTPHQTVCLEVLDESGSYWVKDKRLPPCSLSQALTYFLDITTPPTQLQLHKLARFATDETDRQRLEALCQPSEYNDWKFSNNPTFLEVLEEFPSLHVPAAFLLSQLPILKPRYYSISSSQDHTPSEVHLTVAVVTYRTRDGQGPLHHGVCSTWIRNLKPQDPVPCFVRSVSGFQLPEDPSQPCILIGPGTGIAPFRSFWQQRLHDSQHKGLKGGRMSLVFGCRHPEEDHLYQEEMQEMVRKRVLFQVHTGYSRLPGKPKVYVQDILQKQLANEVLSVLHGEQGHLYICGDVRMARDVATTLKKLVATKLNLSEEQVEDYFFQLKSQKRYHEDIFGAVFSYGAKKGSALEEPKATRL

Substance-K receptor = target: T3, Substance-K receptor (Homo sapiens, UniProt P21452); assay type: cell membranes, CHO, Membrane; settings: cho; further: in other assays of this panel Not Active means under 50% inhibition at 10 µM
T3 sequence (P21452 whole entry): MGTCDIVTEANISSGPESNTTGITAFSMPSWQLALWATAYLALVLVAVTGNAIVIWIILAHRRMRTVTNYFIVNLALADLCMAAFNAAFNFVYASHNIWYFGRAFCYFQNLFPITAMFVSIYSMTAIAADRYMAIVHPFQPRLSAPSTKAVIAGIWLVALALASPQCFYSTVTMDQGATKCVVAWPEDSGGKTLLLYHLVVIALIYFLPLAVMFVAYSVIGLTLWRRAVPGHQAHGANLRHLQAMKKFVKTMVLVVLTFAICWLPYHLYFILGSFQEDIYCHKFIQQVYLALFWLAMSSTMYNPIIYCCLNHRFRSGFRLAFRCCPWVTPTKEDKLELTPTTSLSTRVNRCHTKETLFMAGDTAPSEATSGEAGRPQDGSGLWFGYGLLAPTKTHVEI

Melanocortin receptor 3 = Melanocortin receptor 3 (Homo sapiens, UniProt P41968); assay type: cell membranes, HEK293, Membrane; settings: hek293; further: in other assays of this panel Not Active means under 50% inhibition at 10 µM
Melanocortin receptor 3, sequence (P41968 whole entry): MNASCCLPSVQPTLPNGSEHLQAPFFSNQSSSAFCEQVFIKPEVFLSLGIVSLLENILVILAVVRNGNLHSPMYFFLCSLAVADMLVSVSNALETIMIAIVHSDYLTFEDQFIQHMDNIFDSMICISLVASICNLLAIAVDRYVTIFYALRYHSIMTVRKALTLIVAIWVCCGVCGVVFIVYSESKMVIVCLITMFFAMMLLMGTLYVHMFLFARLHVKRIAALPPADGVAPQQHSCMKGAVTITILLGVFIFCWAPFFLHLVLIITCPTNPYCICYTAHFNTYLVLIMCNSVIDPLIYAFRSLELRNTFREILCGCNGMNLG

[3] = DRUGMATRIX: Purinergic P2X radioligand binding (ligand: [3H] alpha, beta-Methylene-ATP); assay type: cell membranes, Oryctolagus cuniculus, New Zealand albino, Urinary bladder, Membrane; settings: Not Active = under 50% inhibition at 10 µM
Thromboxane-A synthase = target: T4, Thromboxane-A synthase (Homo sapiens, UniProt P24557); assay: biochemical; assay type: tissue-based, Platelet; settings: platelet
T4 sequence (P24557 whole entry): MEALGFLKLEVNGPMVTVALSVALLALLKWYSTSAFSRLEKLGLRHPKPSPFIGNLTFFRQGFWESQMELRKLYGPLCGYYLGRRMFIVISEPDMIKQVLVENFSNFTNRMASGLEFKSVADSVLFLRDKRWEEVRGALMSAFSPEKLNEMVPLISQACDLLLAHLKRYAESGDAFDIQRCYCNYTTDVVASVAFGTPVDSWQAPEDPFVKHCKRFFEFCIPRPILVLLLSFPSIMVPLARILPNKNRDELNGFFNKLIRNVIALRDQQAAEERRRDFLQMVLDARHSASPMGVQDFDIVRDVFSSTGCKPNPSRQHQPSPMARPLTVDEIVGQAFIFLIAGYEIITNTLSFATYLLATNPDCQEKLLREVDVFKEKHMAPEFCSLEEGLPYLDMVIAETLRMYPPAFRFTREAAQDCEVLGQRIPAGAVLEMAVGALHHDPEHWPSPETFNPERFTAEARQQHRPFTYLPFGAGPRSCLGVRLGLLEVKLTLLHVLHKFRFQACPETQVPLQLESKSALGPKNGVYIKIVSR

Vasopressin V1a receptor = Vasopressin V1a receptor (Homo sapiens, UniProt P37288); assay type: cell membranes, Membrane; settings: hek293; further: in other assays of this panel Not Active means under 50% inhibition at 10 µM
Vasopressin V1a receptor, sequence (P37288 whole entry): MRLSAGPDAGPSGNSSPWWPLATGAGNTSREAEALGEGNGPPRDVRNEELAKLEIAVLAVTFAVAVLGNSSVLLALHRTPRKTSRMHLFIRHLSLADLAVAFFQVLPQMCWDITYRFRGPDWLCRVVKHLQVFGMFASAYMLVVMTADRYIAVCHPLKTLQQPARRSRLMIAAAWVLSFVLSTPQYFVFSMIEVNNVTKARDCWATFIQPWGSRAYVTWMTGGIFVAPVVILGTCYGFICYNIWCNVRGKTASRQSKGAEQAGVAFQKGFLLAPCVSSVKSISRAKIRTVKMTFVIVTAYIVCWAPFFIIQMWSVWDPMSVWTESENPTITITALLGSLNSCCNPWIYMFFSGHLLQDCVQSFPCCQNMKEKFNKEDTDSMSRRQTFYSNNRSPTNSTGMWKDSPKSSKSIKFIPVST

Nc1nc2c(ncn2COCCO)c(=O)[nH]1 [ACYCLOVIR]
Not Active: IC50 [1] | IC50 [2] | IC50 (Substance-K receptor) | IC50 (Melanocortin receptor 3) | IC50 [3] | Ki [3] | IC50 (Thromboxane-A synthase) | IC50 (Vasopressin V1a receptor)

CN(C)CCCN1c2ccccc2Sc2ccccc21 [PROMAZINE]
Not Active: IC50 [1] | IC50 [2] | IC50 (Substance-K receptor) | IC50 (Melanocortin receptor 3) | IC50 [3] | Ki [3] | IC50 (Thromboxane-A synthase) | IC50 (Vasopressin V1a receptor)

CC1(C)O[C@@H]2C[C@H]3[C@@H]4CCC5=CC(=O)CC[C@]5(C)[C@@]4(F)[C@@H](O)C[C@]3(C)[C@]2(C(=O)CCl)O1 [HALCINONIDE]
Not Active: IC50 [1] | IC50 [2] | IC50 (Substance-K receptor) | IC50 (Melanocortin receptor 3) | IC50 [3] | Ki [3] | IC50 (Thromboxane-A synthase) | IC50 (Vasopressin V1a receptor)

CC1CC(OC(=O)C(O)c2ccccc2)CC(C)(C)C1 (stereo not drawn) [CYCLANDELATE]
Not Active: IC50 [1] | IC50 [2] | IC50 (Substance-K receptor) | IC50 (Melanocortin receptor 3) | IC50 [3] | Ki [3] | IC50 (Thromboxane-A synthase) | IC50 (Vasopressin V1a receptor)

LEAD (II) ACETATE
Not Active: IC50 [1] | Ki [1] | IC50 [2] | Ki [2] | IC50 (Substance-K receptor) | Ki (Substance-K receptor) | IC50 (Melanocortin receptor 3) | Ki (Melanocortin receptor 3) | IC50 [3] | Ki [3] | IC50 (Thromboxane-A synthase) | Ki (Thromboxane-A synthase) | IC50 (Vasopressin V1a receptor) | Ki (Vasopressin V1a receptor)

Sc1ncnc2nc[nH]c12 [MERCAPTOPURINE ANHYDROUS]
Not Active: IC50 [1] | IC50 [2] | IC50 (Substance-K receptor) | IC50 (Melanocortin receptor 3) | IC50 [3] | Ki [3] | IC50 (Thromboxane-A synthase) | IC50 (Vasopressin V1a receptor)

O=c1[nH]c(=O)n([C@H]2C[C@H](O)[C@@H](CO)O2)cc1I [IDOXURIDINE]
Not Active: IC50 [1] | IC50 [2] | IC50 (Substance-K receptor) | IC50 (Melanocortin receptor 3) | IC50 [3] | Ki [3] | IC50 (Thromboxane-A synthase) | IC50 (Vasopressin V1a receptor)

CC1(C)S[C@@H]2[C@H](NC(=O)Cc3ccccc3)C(=O)N2[C@H]1C(=O)O [PENICILLIN G]
Not Active: IC50 [1] | IC50 [2] | IC50 (Substance-K receptor) | IC50 (Melanocortin receptor 3) | IC50 [3] | Ki [3] | IC50 (Thromboxane-A synthase) | IC50 (Vasopressin V1a receptor)

CC1=C2C(=CO[C@H](C)[C@H]2C)C(O)=C(C(=O)O)C1=O [CITRININ]
Not Active: IC50 [1] | IC50 [2] | IC50 (Substance-K receptor) | IC50 (Melanocortin receptor 3) | IC50 [3] | Ki [3] | IC50 (Thromboxane-A synthase) | IC50 (Vasopressin V1a receptor)
